Measured values taken from patent publication US4622389A, “Novel substrate for determining the activity of blood coagulation factor Xa (Stuart-Prower factor)” (Nitto Poseki Co., Ltd., priority 1984, dated 1986).
Residues, ends and D or L forms follow the SMILES beside them. *: point of attachment. pNA = O=[N+]([O-])c1ccc(N*)cc1; Bz = O=C(c1ccccc1)*

Tests used:
[1] = Solubility in water; format: physicochemical
[2] = target: T1, factor Xa (FXa) (Homo sapiens, UniProt P00742); assay: Substrate specificity test: reaction of substrates with FXa, absorbance of liberated chromogen; format: biochemical; conditions: for absorbance (O.D.), FXa: So = 0.4 mM/l, 5 min reaction at 37° C.
T1 construct: purchased Bohringer Mannheim, GmbH, West Germany
T1 sequence (P00742 235-488 limits assumed): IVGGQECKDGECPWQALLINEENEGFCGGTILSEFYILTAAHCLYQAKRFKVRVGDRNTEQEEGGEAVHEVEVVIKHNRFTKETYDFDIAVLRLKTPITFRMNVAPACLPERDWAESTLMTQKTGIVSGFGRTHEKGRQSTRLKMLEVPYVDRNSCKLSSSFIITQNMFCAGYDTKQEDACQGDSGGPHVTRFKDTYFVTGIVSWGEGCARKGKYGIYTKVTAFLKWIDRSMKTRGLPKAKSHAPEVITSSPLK
T1 sequence (P00742 41-179 partner limits assumed): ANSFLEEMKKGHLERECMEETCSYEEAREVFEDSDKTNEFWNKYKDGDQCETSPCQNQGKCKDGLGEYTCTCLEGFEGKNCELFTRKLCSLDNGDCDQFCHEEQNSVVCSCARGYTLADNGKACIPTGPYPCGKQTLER
Method: (§1) The specificities of newly synthesized substrates were tested by reacting them with various enzymes as follows.
(§2) (1) Substrate solution: 2 mM/liter of H2 O
(§3) (2) Buffer solutions: The concentrations of each of tris(hydroxymethyl)aminomethane [hereinafter referred to as "Tris"], NaCl and CaCl2, as well as pH were specified as follows for the respective enzymes. […]
(§4) (4) Reaction Stopper (PNA): 10%-acetic acid
(§5) (5) Color forming agent (CHA): Pentacyanoamineferroate
(§6) (6) Method of determination:
(§7) 0.3 Milliter buffer solution and 0.1 ml of enzyme reagent were collected in a hard glass test tube of which surface being treated with silicone, or a plastic test tube and preheated in a thermostat at 37° C. for 5 minutes. Precisely 5 minutes after the reaction was started, 2.0 ml of reaction stopper solution or reactionterminating color forming reagent was added to terminate the enzyme reaction. The reaction mixture was allowed to stand at 37° C. for 10 minutes and then the adsorbance at 405 nm or 700 nm was measured.

[3] = target: T2, thrombin (TH) (Bos taurus, UniProt P00735); assay: Substrate specificity test: reaction of substrates with thrombin; format: biochemical, Bovine; conditions: for absorbance (O.D.), TH: So = 0.4 mM/l, 5 min reaction at 37° C.
T2 construct: proteolyze factor II (prothrombin) at two points of peptide chain to turn it into factor IIa (thrombin); purchased Mochida Pharmaceutical Co., Ltd., Japan
Method: as §1, §2, §3, §4, §5, §6, §7

[4] = target: T3, plasmin (PL) (Homo sapiens, UniProt P00747); assay: Substrate specificity test: reaction of substrates with plasmin; format: biochemical; conditions: for absorbance (O.D.), PL: So = 0.4 mM/l, 5 min reaction at 37° C.
T3 construct: Plasmin Human; purchased The Green Cross Corporation, Japan
T3 sequence (P00747 581-810 limits assumed): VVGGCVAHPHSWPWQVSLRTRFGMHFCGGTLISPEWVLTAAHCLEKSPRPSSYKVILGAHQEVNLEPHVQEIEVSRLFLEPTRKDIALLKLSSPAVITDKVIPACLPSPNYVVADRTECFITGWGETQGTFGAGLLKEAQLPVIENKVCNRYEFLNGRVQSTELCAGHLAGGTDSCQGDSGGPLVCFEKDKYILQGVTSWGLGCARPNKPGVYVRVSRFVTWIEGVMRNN
T3 sequence (P00747 97-580 partner limits assumed): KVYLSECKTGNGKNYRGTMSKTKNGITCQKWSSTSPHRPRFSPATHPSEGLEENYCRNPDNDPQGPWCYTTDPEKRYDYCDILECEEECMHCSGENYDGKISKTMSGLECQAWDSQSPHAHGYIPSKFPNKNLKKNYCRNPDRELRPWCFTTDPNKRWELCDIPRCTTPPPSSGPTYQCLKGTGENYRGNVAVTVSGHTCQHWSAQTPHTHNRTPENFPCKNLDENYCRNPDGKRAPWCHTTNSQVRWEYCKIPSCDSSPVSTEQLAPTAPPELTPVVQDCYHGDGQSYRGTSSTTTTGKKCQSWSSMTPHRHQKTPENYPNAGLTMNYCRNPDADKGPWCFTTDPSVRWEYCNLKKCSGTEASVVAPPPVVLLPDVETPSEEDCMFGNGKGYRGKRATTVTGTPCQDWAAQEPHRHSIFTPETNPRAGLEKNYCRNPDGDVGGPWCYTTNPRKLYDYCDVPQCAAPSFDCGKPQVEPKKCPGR
Method: as §1, §2, §3, §4, §5, §6, §7

[5] = target: T4, kallikrein (KL) (Sus scrofa, UniProt P00752); assay: Substrate specificity test: reaction of substrates with kallikrein; format: biochemical, Swine; conditions: So = 0.4 mM/l, 5 min reaction at 37° C.
T4 construct: purchased Sigma Chemical Co., U.S.A
T4 sequence (P00752 8-246): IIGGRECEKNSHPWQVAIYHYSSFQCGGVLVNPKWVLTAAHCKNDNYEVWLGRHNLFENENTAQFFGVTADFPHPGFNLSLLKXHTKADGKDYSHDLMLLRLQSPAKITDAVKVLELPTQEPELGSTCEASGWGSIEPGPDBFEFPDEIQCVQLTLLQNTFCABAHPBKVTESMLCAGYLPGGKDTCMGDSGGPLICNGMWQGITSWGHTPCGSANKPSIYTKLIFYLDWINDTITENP
Method: as §1, §2, §3, §4, §5, §6, §7

[6] = target: T5, urokinase (UK) (Homo sapiens, UniProt P00749); assay: Substrate specificity test: reaction of substrates with urokinase; format: biochemical; conditions: for absorbance (O.D.), UK: So = 0.4 mM/l, 5 min reaction at 37° C.
T5 construct: purchased Mochida Pharmaceutical Co., Ltd., Japan
Method: as §1, §2, §3, §4, §5, §6, §7

[7] = 700 nm (CHA substrates, pentacyanoamineferroate)
[8] = PS-2000N given as 100, initial substrate concentration So = 0.4 mmol

SMILES | absorbance (O.D.), FXa [2, 7] [O.D.] | absorbance (O.D.), TH [3, 7] [O.D.] | absorbance (O.D.), PL [4, 7] [O.D.] | absorbance (O.D.), KL [5, 7] [O.D.] | absorbance (O.D.), UK [6, 7] [O.D.] | further results
CC[C@H](C)[C@H](NC(=O)c1ccccc1)C(=O)N[C@@H](CCC(=O)O)C(=O)NCC(=O)N[C@@H](CCCN=C(N)N)C(=O)Nc1ccc([N+](=O)[O-])cc1 [S-2222, Bz-Ile-Glu-Gly-Arg-PNA, reference compound] (Bz-IEGR-pNA) |  |  |  |  |  | water solubility [1]: about 6 mmol/1
CC[C@H](C)[C@H](NC(=O)c1ccccc1)C(=O)N[C@@H](CCC(=O)O)C(=O)NCC(=O)N[C@@H](CCCNC(=N)N)C(=O)Nc1ccc([N+](=O)[O-])cc1 [S-2222, Bz-Ile-Glu-Gly-Arg-PNA, reference compound] (Bz-IEGR-pNA) |  |  |  |  |  | absorbance (O.D.), FXa ([2]; 405 nm (PNA substrates)): 0.669 O.D.; Relative reactivity to enzymes, Fxa [2, 8]: 57%; absorbance (O.D.), TH ([3]; 405 nm (PNA substrates)): 0.018 O.D.; Relative reactivity to enzymes, TH [3, 8]: 31%; absorbance (O.D.), PL ([4]; 405 nm (PNA substrates)): 0.011 O.D.; Relative reactivity to enzymes, PL [4, 8]: 16%; absorbance (O.D.), KL ([5]; 405 nm (PNA substrates)): 0.013 O.D.; absorbance (O.D.), UK ([6]; 405 nm (PNA substrates)): 0.035 O.D.; Relative reactivity to enzymes, UK [6, 8]: 40%

Further lines, with some results ahead:

absorbance (O.D.), FXa [2, 7] [O.D.] | absorbance (O.D.), TH [3, 7] [O.D.] | absorbance (O.D.), PL [4, 7] [O.D.] | absorbance (O.D.), KL [5, 7] [O.D.] | absorbance (O.D.), UK [6, 7] [O.D.] | SMILES | further results
0.314 | 0.006 | 0.005 | 0.0 | 0.004 | N=C(N)NCCC[C@H](NC(=O)CNC(=O)[C@@H](CCCCN)NC(=O)OCc1ccccc1)C(=O)Nc1ccc(O)c(C(=O)O)c1 [PS-2001, ZD-LysGlyArgCHA] | 
0.426 | 0.009 | 0.004 | 0.0 | 0.003 | CC(=O)NCCCC[C@@H](NC(=O)OCc1ccccc1)C(=O)NCC(=O)N[C@@H](CCCNC(=N)N)C(=O)Nc1ccc(O)c(C(=O)O)c1 [PS-2002, ZD-Lys(Ac)GlyArgCHA] | 
0.292 | 0.006 | 0.0 | 0.0 | 0.0 | CN(CC(=O)N[C@@H](CCCNC(=N)N)C(=O)Nc1ccc(O)c(C(=O)O)c1)C(=O)[C@@H](CCCCN)NC(=O)OCc1ccccc1 [PS-2004, ZD-LysSarArgCHA] | 
